Each molecule was assayed on adjuvant-induced arthritis in rats (assay: Established adjuvant-induced arthritis in rats (A.A.)). Conditions: Rattus norvegicus, 24 h; oral gavage, 7 daily doses; established adjuvant arthritis; uninjected left hind paw volume one day after last dose; read-out: A.A. ED50% (% paw volume reduction from control).
Assay type: in vivo, Charles River Lewis male rats

Row | SMILES | ED50
1 | CC(C)Cc1ccc(C(C)C(=O)O)cc1 (stereo not drawn) [Ibuprofen, reference compound] | 100 mg/kg
2 | CCCCC1C(=O)N(c2ccccc2)N(c2ccccc2)C1=O [Phenylbutazone, reference compound] | 10 mg/kg

Same assay, conditions: Rattus norvegicus, po, 24 h, read-out: A.A. ED50% (% paw volume reduction from control)

Row | SMILES | ED50
3 | CC(=O)Oc1ccccc1C(=O)O [Aspirin, reference compound] | 305 mg/kg
4 | FC(F)C(F)(F)Sc1nc2c3ccccc3c3ccccc3c2[nH]1 [Example 2, 2-[(1,1,2,2-tetrafluoroethyl)thio]-1H-phenanthro[9,10-d]imidazole] | > 25 mg/kg
5 | O=S(=O)(c1nc2c3ccccc3c3ccccc3c2[nH]1)C(F)(F)C(F)F [Example 3, 2-[(1,1,2,2-Tetrafluoroethyl)sulfonyl]-1H-phenanthro-[9,10-d]-imidazole] | 28 mg/kg
6 | Fc1ccc2c(c1)c1cc(F)ccc1c1[nH]c(SC(F)(F)C(F)F)nc21 [Example 7, 6,9-Difluoro-2-[(1,1,2,2-tetrafluoroethyl)thio]-1H-phenanthro-[9,10-d]imidazole] | 0.45 mg/kg
7 | O=S(=O)(c1nc2c3ccc(F)cc3c3cc(F)ccc3c2[nH]1)C(F)(F)C(F)F [Example 8, 6,9-Difluoro-2-[(1,1,2,2-tetrafluoroethyl)sulfonyl]-1H-phenanthro[9,10-d]imidazole] | 0.8 mg/kg
8 | COc1ccc2c(c1)c(CC(=O)O)c(C)n2C(=O)c1ccc(Cl)cc1 [Indomethacin, reference compound] | 0.3 mg/kg

Each molecule was assayed on phenylquinone-induced writhing (pain) in mice (assay: Phenylquinone writhing test). Conditions: Mus musculus; oral; phenylquinone i.p.; footnote: at 2 hours; read-out: ED50 (effective analgesic dose for 50% of the mice).
Assay type: in vivo, female white mice
Method: A procedure for detecting and comparing the analgesic activity of compounds in this series and standard drugs for which there is a good correlation with human efficacy is the phenylquinone writhing test.
The phenylquinone writhing test, modified from Siegmund, et al., Proc. Soc. Exp. Biol. Med. 95, 729 (1957), was employed. A test compound suspended in 1% methylcellulose was given orally to fasted (17-21 hours) female white mice, 5-20 animals per double blind test. […] […] The effective analgesic dose for 50% of the mice (ED50) was calculated by the moving average method of Thompson, W. R., Bact. Rev. 11, 115-145 (1947).

Row | SMILES | ED50
9 | COc1ccc2c(c1)c1cc(OC)ccc1c1[nH]c(S(=O)(=O)C(F)(F)F)nc21 [Example 6, 6,9-Dimethoxy-2-(trifluoromethylsulfonyl)-1H-phenanthro-[9,10-d]imidazole] | 29 mg/kg

Source: patent US4215135A, “Antiinflammatory 2-substituted-1H-phenanthro[9,10-d]imidazoles” (E. I. Du Pont de Nemours and Company, priority 1979, dated 1980)
